Data as given in PubChem BioAssay (NCI).
Values joined by “and” are separate entries in the source; they are usually repeats but may differ in a detail not shown here. Identical values can stand only once.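 Each compound was tested at five concentrations against cells in 96-well plates for 48 hours. Abbreviation: GI50, concentration required for 50% inhibition of growth. TGI denotes the concentration required for complete inhibition of growth.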

How the values were obtained:
Experiment in all cases: NCI tumour cell line growth inhibition, 48 h
786-0 renal = tested on: 786-0 renal
A498 renal = tested on: A498 renal
A549 NSCLC = tested on: A549 NSCLC
ACHN renal = tested on: ACHN renal
BT-549 breast = tested on: BT-549 breast
CAKI-1 renal = tested on: CAKI-1 renal
CCRF-CEM leukemia = tested on: CCRF-CEM leukemia
COLO 205 colon = tested on: COLO 205 colon
DU-145 prostate = tested on: DU-145 prostate
EKVX NSCLC = tested on: EKVX NSCLC
HCC-2998 colon = tested on: HCC-2998 colon
HCT-116 colon = tested on: HCT-116 colon
HCT-15 colon = tested on: HCT-15 colon
HL-60(TB) leukemia = tested on: HL-60(TB) leukemia
HOP-62 NSCLC = tested on: HOP-62 NSCLC
HOP-92 NSCLC = tested on: HOP-92 NSCLC
HS 578T breast = tested on: HS 578T breast
HT29 colon = tested on: HT29 colon
IGROV1 ovarian = tested on: IGROV1 ovarian
K-562 leukemia = tested on: K-562 leukemia
KM12 colon = tested on: KM12 colon
LOX IMVI melanoma = tested on: LOX IMVI melanoma
M14 melanoma = tested on: M14 melanoma
MALME-3M melanoma = tested on: MALME-3M melanoma
MCF7 breast = tested on: MCF7 breast
MDA-MB-231 breast = tested on: MDA-MB-231 breast
MDA-MB-435 = tested on: MDA-MB-435
MDA-MB-468 breast = tested on: MDA-MB-468 breast
MOLT-4 leukemia = tested on: MOLT-4 leukemia
NCI-H226 lung = tested on: NCI-H226 lung
NCI-H23 lung = tested on: NCI-H23 lung
NCI-H460 lung = tested on: NCI-H460 lung
NCI-H522 lung = tested on: NCI-H522 lung
OVCAR-3 ovarian = tested on: OVCAR-3 ovarian
OVCAR-4 ovarian = tested on: OVCAR-4 ovarian
OVCAR-5 ovarian = tested on: OVCAR-5 ovarian
OVCAR-8 ovarian = tested on: OVCAR-8 ovarian
PC-3 prostate = tested on: PC-3 prostate
RPMI-8226 leukemia = tested on: RPMI-8226 leukemia
RXF 393 renal = tested on: RXF 393 renal
SF-268 CNS = tested on: SF-268 CNS
SF-295 CNS = tested on: SF-295 CNS
SF-539 CNS = tested on: SF-539 CNS
SK-MEL-2 melanoma = tested on: SK-MEL-2 melanoma
SK-MEL-28 melanoma = tested on: SK-MEL-28 melanoma
SK-MEL-5 melanoma = tested on: SK-MEL-5 melanoma
SK-OV-3 ovarian = tested on: SK-OV-3 ovarian
SN12C renal = tested on: SN12C renal
SNB-19 CNS = tested on: SNB-19 CNS
SNB-75 CNS = tested on: SNB-75 CNS
SR leukemia = tested on: SR leukemia
SW-620 colon = tested on: SW-620 colon
T-47D breast = tested on: T-47D breast
TK-10 renal = tested on: TK-10 renal
U251 CNS = tested on: U251 CNS
UACC-257 melanoma = tested on: UACC-257 melanoma
UACC-62 melanoma = tested on: UACC-62 melanoma
UO-31 renal = tested on: UO-31 renal

Compound: CC(=O)Nc1ccc(-c2cn(-c3cccc(C(=O)Nc4cc(C(F)(F)F)cc(C(F)(F)F)c4)c3)nn2)cn1
- GI50 (786-0 renal): 3.41 µM
- TGI (786-0 renal): 12 µM
- GI50 (A498 renal): 25.4 µM
- TGI (A498 renal): 42.1 µM
- GI50 (A549 NSCLC): 4.54 µM
- TGI (A549 NSCLC): 16.3 µM
- GI50 (ACHN renal): 11.1 µM
- TGI (ACHN renal): 37.5 µM
- GI50 (BT-549 breast): 3.37 µM
- TGI (BT-549 breast): 8.51 µM
- GI50 (CAKI-1 renal): 17.3 µM
- TGI (CAKI-1 renal): 45.1 µM
- GI50 (CCRF-CEM leukemia): 2.4 µM
- TGI (CCRF-CEM leukemia): 6.76 µM
- GI50 (COLO 205 colon): 7.14 µM
- TGI (COLO 205 colon): 23.7 µM
- GI50 (DU-145 prostate): 10.4 µM
- TGI (DU-145 prostate): 29.5 µM
- GI50 (EKVX NSCLC): 11.2 µM
- TGI (EKVX NSCLC): 36.1 µM
- GI50 (HCC-2998 colon): 14 µM
- TGI (HCC-2998 colon): 34.3 µM
- GI50 (HCT-116 colon): 5.78 µM
- TGI (HCT-116 colon): 27.7 µM
- GI50 (HCT-15 colon): 10.9 µM
- TGI (HCT-15 colon): 33.1 µM
- GI50 (HL-60(TB) leukemia): 1.23 µM
- TGI (HL-60(TB) leukemia): 10.9 µM
- GI50 (HOP-62 NSCLC): 8.56 µM
- TGI (HOP-62 NSCLC): 22.5 µM
- GI50 (HOP-92 NSCLC): 2.7 µM
- TGI (HOP-92 NSCLC): 8.6 µM
- GI50 (HS 578T breast): 6.17 µM
- TGI (HS 578T breast): 48.9 µM
- GI50 (HT29 colon): 3.24 µM
- TGI (HT29 colon): 12.9 µM
- GI50 (IGROV1 ovarian): 16.4 µM
- TGI (IGROV1 ovarian): 35.3 µM
- GI50 (K-562 leukemia): 0.154 µM
- TGI (K-562 leukemia): 10.5 µM
- GI50 (KM12 colon): 0.417 µM
- TGI (KM12 colon): 12.7 µM
- GI50 (LOX IMVI melanoma): 4.53 µM
- TGI (LOX IMVI melanoma): 16.3 µM
- GI50 (M14 melanoma): 4.39 µM
- TGI (M14 melanoma): 19.9 µM
- GI50 (MALME-3M melanoma): 3.26 µM
- TGI (MALME-3M melanoma): 12.6 µM
- GI50 (MCF7 breast): 4.68 µM
- TGI (MCF7 breast): 21.8 µM
- GI50 (MDA-MB-231 breast): 7.51 µM
- TGI (MDA-MB-231 breast): 25.1 µM
- GI50 (MDA-MB-435): 11.7 µM
- TGI (MDA-MB-435): 28.1 µM
- GI50 (MDA-MB-468 breast): 3.46 µM
- TGI (MDA-MB-468 breast): 16.2 µM
- GI50 (MOLT-4 leukemia): 1.94 µM
- TGI (MOLT-4 leukemia): 6.12 µM
- GI50 (NCI-H226 lung): 13.8 µM
- TGI (NCI-H226 lung): 30.1 µM
- GI50 (NCI-H23 lung): 14.2 µM
- TGI (NCI-H23 lung): 33.5 µM
- GI50 (NCI-H460 lung): 4.2 µM
- TGI (NCI-H460 lung): 15.2 µM
- GI50 (NCI-H522 lung): 12.3 µM
- TGI (NCI-H522 lung): 30.8 µM
- GI50 (OVCAR-3 ovarian): 7.7 µM
- TGI (OVCAR-3 ovarian): 21.2 µM
- GI50 (OVCAR-4 ovarian): 11.9 µM
- TGI (OVCAR-4 ovarian): 31.7 µM
- GI50 (OVCAR-5 ovarian): 18.7 µM
- TGI (OVCAR-5 ovarian): 38.9 µM
- GI50 (OVCAR-8 ovarian): 8.26 µM
- TGI (OVCAR-8 ovarian): 24.4 µM
- GI50 (PC-3 prostate): 3.4 µM
- TGI (PC-3 prostate): 10.8 µM
- GI50 (RPMI-8226 leukemia): 3.46 µM
- TGI (RPMI-8226 leukemia): 15 µM
- GI50 (RXF 393 renal): 11.2 µM
- TGI (RXF 393 renal): 26.4 µM
- GI50 (SF-268 CNS): 21 µM
- TGI (SF-268 CNS): 64.7 µM
- GI50 (SF-295 CNS): 14.2 µM
- TGI (SF-295 CNS): 37.3 µM
- GI50 (SF-539 CNS): 10 µM
- TGI (SF-539 CNS): 24.8 µM
- GI50 (SK-MEL-2 melanoma): 13.4 µM
- TGI (SK-MEL-2 melanoma): 28.1 µM
- GI50 (SK-MEL-28 melanoma): 12.9 µM
- TGI (SK-MEL-28 melanoma): 29.3 µM
- GI50 (SK-MEL-5 melanoma): 16.4 µM
- TGI (SK-MEL-5 melanoma): 33.2 µM
- GI50 (SK-OV-3 ovarian): 13.5 µM
- TGI (SK-OV-3 ovarian): 34.1 µM
- GI50 (SN12C renal): 11 µM
- TGI (SN12C renal): 28.1 µM
- GI50 (SNB-19 CNS): 19.9 µM
- TGI (SNB-19 CNS): 50.2 µM
- GI50 (SNB-75 CNS): 5.84 µM
- TGI (SNB-75 CNS): 28.4 µM
- GI50 (SR leukemia): 1.89 µM
- TGI (SR leukemia): 5.18 µM
- GI50 (SW-620 colon): 7.85 µM
- TGI (SW-620 colon): 24.1 µM
- GI50 (T-47D breast): 19.1 µM
- TGI (T-47D breast): 91.6 µM
- GI50 (TK-10 renal): 26 µM
- TGI (TK-10 renal): 49.3 µM
- GI50 (U251 CNS): 3.85 µM
- TGI (U251 CNS): 13.5 µM
- GI50 (UACC-257 melanoma): 12.9 µM
- TGI (UACC-257 melanoma): 36 µM
- GI50 (UACC-62 melanoma): 13.5 µM
- TGI (UACC-62 melanoma): 29.8 µM
- GI50 (UO-31 renal): 19.5 µM
- TGI (UO-31 renal): 37.2 µM

Compound: c1ccc(CC(NCCNC(Cc2ccccc2)c2ccccc2)c2ccccc2)cc1 (stereo unspecified)
- GI50 (MDA-MB-468 breast): 0.255 µM
- TGI (MDA-MB-468 breast): 0.745 µM

Compound: Cc1cc(NC(=O)NC(=O)c2ccccc2N(C)C)ccc1Oc1ncc(Br)cn1
- GI50 (MDA-MB-468 breast): 0.49 µM
- TGI (MDA-MB-468 breast): > 100 µM

Compound: COc1ccc(NC(=O)c2sc3nc4c(cc3c2N)CCCC4)cc1
- GI50 (MDA-MB-468 breast): 0.481 µM
- TGI (MDA-MB-468 breast): 96.4 µM

Compound: CN(C)CCCN1c2ccccc2Sc2ccc(Cl)cc21
- GI50 (MDA-MB-468 breast): 1.67 µM and 1.81 µM
- TGI (MDA-MB-468 breast): 3.54 µM and 4.62 µM

Compound: COc1ccc2cc(-c3c(-c4ccncc4)nc(-c4ccc(S(C)=O)cc4C)n3C)ccc2c1 (stereo unspecified)
- GI50 (MDA-MB-468 breast): 9.07 µM
- TGI (MDA-MB-468 breast): > 25 µM

Compound: COc1ccccc1/C=C\C(=O)c1ccccc1
- GI50 (MDA-MB-468 breast): 3.97 µM
- TGI (MDA-MB-468 breast): 19.1 µM

Compound: Nc1ncnc2c1c(-c1ccc(Oc3ccccc3)cc1)nn2C[C@@H]1SSC[C@@H]1O
- GI50 (MDA-MB-468 breast): 0.4 µM
- TGI (MDA-MB-468 breast): 2.19 µM

Compound: COc1ccc2[nH]c(-c3ccccc3)cc2c1
- GI50 (MDA-MB-468 breast): 47 µM
- TGI (MDA-MB-468 breast): > 100 µM

Compound: CN(C)C/C=C/C(=O)Nc1ccc(C(=O)N2CCC[C@@H](Nc3ncc(Cl)c(-c4c[nH]c5ccccc45)n3)C2)cc1
- GI50 (MDA-MB-468 breast): 0.0249 µM
- TGI (MDA-MB-468 breast): 0.0722 µM

Compound: COc1cc(-n2cc(-c3cc(O)c(C/C=C(\C)CCC=C(C)C)c(O)c3)nn2)cc2c1O[C@]1(C)CC[C@@H](O)C(C)(C)[C@H]1C2
- GI50 (MDA-MB-468 breast): 0.88 µM
- TGI (MDA-MB-468 breast): 4.89 µM

Compound: COc1ccc(-c2nc3c(c(=O)n2C(C)=O)C(c2ccc(Cl)cc2)c2sc4c(Cl)cccc4c2O3)cc1 (stereo unspecified)
- GI50 (MDA-MB-468 breast): 0.234 µM
- TGI (MDA-MB-468 breast): 0.571 µM

Compound: Cc1cc(=O)oc2cc(OCCn3c(C)nn(-c4ccc(Cl)cc4)c3=O)ccc12
- GI50 (MDA-MB-468 breast): 2.69 µM
- TGI (MDA-MB-468 breast): 57.6 µM

Compound: NC(=O)c1cc(I)ccc1NC(=O)COc1ccccc1
- GI50 (MDA-MB-468 breast): 0.311 µM
